Laboratory results as given in the Kinase Knowledgebase extract (Sharma et al. 2016).
“And” between values parts separate entries of the source, which are not always exact repeats. Equal entries are not always repeated.

What was measured:
[1] = target: EGFR (Human), P00533 [T790M/L858R]
[2] = target: EGFR (human), P00533 [WT]
EGFR (human) = EGFR (human) (UniProt P00533); settings: hcc827
Sequence of EGFR (human) (P00533 whole entry, looked up): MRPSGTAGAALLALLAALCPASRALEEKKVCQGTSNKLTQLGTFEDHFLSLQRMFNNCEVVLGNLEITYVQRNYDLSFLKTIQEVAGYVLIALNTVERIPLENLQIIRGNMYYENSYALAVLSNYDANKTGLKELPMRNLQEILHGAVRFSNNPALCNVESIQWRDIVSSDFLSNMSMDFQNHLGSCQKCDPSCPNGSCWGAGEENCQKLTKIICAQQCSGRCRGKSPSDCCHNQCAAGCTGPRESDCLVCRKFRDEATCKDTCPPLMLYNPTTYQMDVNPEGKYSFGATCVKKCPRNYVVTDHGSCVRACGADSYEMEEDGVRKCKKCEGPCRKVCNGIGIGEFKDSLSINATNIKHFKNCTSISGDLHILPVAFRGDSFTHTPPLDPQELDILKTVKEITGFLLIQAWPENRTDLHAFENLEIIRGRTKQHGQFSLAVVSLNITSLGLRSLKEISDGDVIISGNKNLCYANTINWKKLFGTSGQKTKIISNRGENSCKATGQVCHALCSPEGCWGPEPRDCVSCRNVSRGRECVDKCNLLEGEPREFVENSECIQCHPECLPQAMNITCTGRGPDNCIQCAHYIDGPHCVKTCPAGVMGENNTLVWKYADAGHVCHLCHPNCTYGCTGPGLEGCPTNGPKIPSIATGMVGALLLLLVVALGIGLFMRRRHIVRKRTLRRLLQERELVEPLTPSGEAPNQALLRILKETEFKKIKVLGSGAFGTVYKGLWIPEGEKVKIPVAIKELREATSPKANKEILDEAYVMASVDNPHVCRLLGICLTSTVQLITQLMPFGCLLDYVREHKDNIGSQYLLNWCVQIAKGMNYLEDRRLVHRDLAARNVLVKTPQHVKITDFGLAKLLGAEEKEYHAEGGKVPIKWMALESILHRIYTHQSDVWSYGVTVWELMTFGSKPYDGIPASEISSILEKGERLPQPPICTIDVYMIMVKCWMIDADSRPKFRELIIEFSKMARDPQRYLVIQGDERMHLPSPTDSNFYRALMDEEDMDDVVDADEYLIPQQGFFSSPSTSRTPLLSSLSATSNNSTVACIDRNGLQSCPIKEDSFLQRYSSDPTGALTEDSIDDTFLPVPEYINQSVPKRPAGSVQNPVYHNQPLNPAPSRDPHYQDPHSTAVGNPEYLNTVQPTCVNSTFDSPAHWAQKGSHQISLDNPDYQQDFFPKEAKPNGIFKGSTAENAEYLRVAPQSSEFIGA

Sequence of EGFR (Human), P00533 [T790M/L858R] (P00533 whole entry T790M/L858R, looked up): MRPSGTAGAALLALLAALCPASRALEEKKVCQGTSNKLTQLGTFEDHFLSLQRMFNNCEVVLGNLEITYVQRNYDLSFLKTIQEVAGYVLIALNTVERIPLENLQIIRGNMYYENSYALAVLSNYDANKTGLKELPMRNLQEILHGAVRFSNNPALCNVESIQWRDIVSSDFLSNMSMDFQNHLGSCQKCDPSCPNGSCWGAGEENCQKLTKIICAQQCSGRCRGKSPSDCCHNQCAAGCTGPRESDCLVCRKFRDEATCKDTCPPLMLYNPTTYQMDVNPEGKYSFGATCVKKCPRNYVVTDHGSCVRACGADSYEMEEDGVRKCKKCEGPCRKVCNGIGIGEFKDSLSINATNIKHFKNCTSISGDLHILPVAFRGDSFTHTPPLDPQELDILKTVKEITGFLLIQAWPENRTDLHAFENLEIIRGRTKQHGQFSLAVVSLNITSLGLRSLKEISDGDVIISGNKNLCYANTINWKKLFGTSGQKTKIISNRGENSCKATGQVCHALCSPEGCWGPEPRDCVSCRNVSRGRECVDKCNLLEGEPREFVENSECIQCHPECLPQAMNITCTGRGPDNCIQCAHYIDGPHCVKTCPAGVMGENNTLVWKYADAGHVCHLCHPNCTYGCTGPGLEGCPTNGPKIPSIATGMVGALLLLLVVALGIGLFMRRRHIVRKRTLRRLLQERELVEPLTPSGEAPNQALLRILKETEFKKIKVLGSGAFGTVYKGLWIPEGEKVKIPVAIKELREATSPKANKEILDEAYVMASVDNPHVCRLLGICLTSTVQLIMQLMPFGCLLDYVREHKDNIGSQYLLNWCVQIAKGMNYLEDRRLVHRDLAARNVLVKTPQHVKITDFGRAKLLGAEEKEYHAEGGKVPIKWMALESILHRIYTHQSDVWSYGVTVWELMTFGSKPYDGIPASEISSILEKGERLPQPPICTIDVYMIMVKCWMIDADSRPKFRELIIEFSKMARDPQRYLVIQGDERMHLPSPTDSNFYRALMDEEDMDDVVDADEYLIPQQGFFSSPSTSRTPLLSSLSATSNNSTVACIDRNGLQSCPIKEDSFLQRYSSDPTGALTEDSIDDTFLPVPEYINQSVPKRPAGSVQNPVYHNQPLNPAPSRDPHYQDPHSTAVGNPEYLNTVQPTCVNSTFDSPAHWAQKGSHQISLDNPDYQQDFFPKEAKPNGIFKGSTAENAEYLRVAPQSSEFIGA
Sequence of EGFR (human), P00533 [WT] (P00533 whole entry, looked up): as the sequence (P00533 whole entry, looked up) above

Row | SMILES | IC50 [1] | IC50 [2] | IC50 (EGFR (human))
1 | C[C@@H](Nc1ncnc2sc3c(c12)CCCC3)c1ccccc1 | – | 3.24 µM | –
2 | OC[C@@H](Nc1ncnc2sc3c(c12)CCNC3)c1ccccc1 | > 10 µM | – | –
3 | c1ccc(CNc2ncnc3sc4c(c23)CCCC4)cc1 | > 10 µM | 2.6 µM | > 10 µM
4 | O=C(/C=C/c1ccccc1)N1CCc2c(sc3ncnc(N[C@H](CO)c4ccccc4)c23)C1 | > 10 µM | – | –
5 | CN(C)C/C=C/C(=O)N1CCc2c(sc3ncnc(NCCO)c23)C1 | > 10 µM | – | –
6 | OC[C@@H](Nc1ncnc2sc3c(c12)CCCC3)c1ccccc1 | > 10 µM | – | –

Continued, values first:

Row | IC50 [1] | IC50 [2] | IC50 (EGFR (human)) | SMILES
7 | > 10 µM | – | – | CCC(=O)N1CCc2c(sc3ncnc(N[C@H](CO)c4ccccc4)c23)C1
8 | > 10 µM | – | – | CN1CCN(C/C=C/C(=O)N2CCc3c(sc4ncnc(N[C@H](CO)c5ccccc5)c34)C2)CC1
9 | – | 0.007 µM and 0.006 µM | – | CN(C)C/C=C/C(=O)N1CCc2c(sc3ncnc(N[C@H](CO)c4ccccc4)c23)C1
10 | > 10 µM | – | – | C=CC(=O)N1CCc2c(sc3ncnc(N[C@@H](CO)c4ccccc4)c23)C1
11 | > 10 µM | – | – | CN(C)C/C=C/C(=O)N1CCc2c(sc3ncnc(N[C@@H](CO)c4ccccc4)c23)C1
